Experiment [1] deals with CD31-stained microvessels. Nature of the experiment: CD31 immunohistochemistry of 4T1 tumors (microvessel density). Type of experiment: in vivo, murine. The settings on record: 0.2 mg·kg^−1 i.v.; day 33; n = 3; p = 0.02. The protocol: Figure 2 Loop formation is important for the antitumor activity of VGB3. (A) To investigate the efficacy of VGB3 peptides in vivo 13 days after transplantation of a 4T1 murine MCT into female BALB/c mice (the tumor volume ~150 mm^3), the treatment groups received 0.2 mg·kg^−1 (once every 2 days, i.v.) of either the C-VGB3 or L-VGB3 and the control group received PBS for 20 days. Error bars denote ± SEM. n = 6; **** p < 0.0001, ns = not significant; two-way ANOVA. (B) Investigation of C-VGB3 and L-VGB3 effects on mice weight. […] (C,D) Immunohistochemical (IHC) analyses of CD31 and Ki67 for the C-VGB3-, L-VGB3- and PBS-treated tumors. For IHC staining, the sections of tumor tissues were incubated with the primary mouse monoclonal antibodies for CD31 (1:2000 (v/v)) and Ki67 (5 µg·mL^−1). […] Photographs were taken at 40× magnification. Error bars denote ± SEM. n = 3; * 0.02 ≤ p ≤ 0.04, ns = not significant; one-way ANOVA.
For immunohistochemistry staining, deparaffinized tumor sections were incubated overnight at 4 °C with mouse monoclonal primary anti-Ki67 (5 µg·mL^−1) or anti-CD31 (1:2000 (v/v)). The antigens were detected using 3,3-diaminobenzidine. All images were captured and analyzed with an Olympus BX51 microscope (Olympus America, New York, NY, USA).

The subject of experiment [2] is 4T1 MCT cells. Description: MTT assay, 4T1 MCT cells. It counts as cell-based, murine. Particulars: C-VGB3 0–1.81 μM, n = 3, read-out: IC50, proliferation. How it is done: Figure 5 Suppression of 4T1 cell proliferation and metastasis by C-VGB3 through blockade of VEGFR2 signaling pathways. (A) MTT assay was performed to investigate C-VGB3 effect on the proliferation of 4T1 tumor cells in vitro. C-VGB3 was used at concentrations 0–1.81 μM in the presence (20 ng·mL^−1) or the absence of VEGF. The control cells were treated with no peptide. After 24 and 48 h, the absorbance was measured at 570 nm utilizing an ELISA plate reader (Space Fax 2100, Awareness, Westport, CT, USA). Error bars represent ± SEM. n = 3; * p = 0.0 2, ** p = 0.001, *** and ### p = 0.0001, **** and #### p < 0.0001, ns = not significant; one-way ANOVA. (B) To evaluate the mechanism by which C-VGB3 diminished cell proliferation and metastasis, Western blot analysis was performed for 4T1 cells. […] Error bars represent ± SEM. n = 3; * p = 0.02, ** p = 0.001, *** p = 0.0001, **** p < 0.0001, ns = not significant; one-way ANOVA.
The effects of C-VGB3 and L-VGB3 on the cell survival of HUVE and 4T1 cell lines were investigated using the MTT assay, as previously described, with some modifications. […] After 24 and 48 h of incubation at 37 °C, the absorbance at 570 nm was recorded using an ELISA plate reader (Space Fax 2100, Awareness, Palm City, FL, USA). […]

Experiment [3] has as its system 4T1 cells. Description: Annexin V/PI flow cytometry, 4T1 cells. Type of experiment: cell-based, murine. Particulars: 0.40 μM, 24 h, VEGF 20 ng·mL^−1; control 1.80; n = 3; p < 0.0001. The protocol: An important consequence of VEGF signals is cell survival dominantly via PI3K/AKT/mTOR pathway. Thus, inhibition of VEGF signals leads to the induction of apoptosis. Accordingly, the ability of C-VGB3 to induce apoptosis was investigated. First, apoptotic endothelial and tumor cells were analyzed by flow cytometry after staining with annexin V-FITC and PI. (Figure 6A). Treatment with C-VGB3 (0.40 μM) induced significant apoptosis in both cell lines compared to the controls. […] Apoptosis induction by C-VGB3 was further characterized by the TUNEL assay, as an indicator of late apoptosis, with a confocal microscope (Figure 6B).
Annexin V/Propidium Iodide flow cytometry was performed to investigate the C-VGB3 effect on apoptosis induction, as previously described, with some modifications. […]

Where two headings read alike, the source gives them in different places. Bridge positions count the residues as written; N and C are the ends. Peptide text beside a SMILES is read from it.

On to `CC(C)C[C@@H]1NC(=O)CNC(=O)[C@H](CC(=O)O)NC(=O)[C@H](CC(=O)O)NC(=O)[C@@H]2CCCN2C(=O)[C@@H]2CCCN2C(=O)[C@H](CCCNC(=N)N)NC(=O)[C@@H](NC(=O)[C@@H](N)CCC(=O)O)CSSC[C@@H](C(=O)O)NC1=O` [C-VGB3] (H-ECRPPDDGLC-OH; disulfide 2-10), for which the “reduction in vessel density (CD31)” value in experiment [1] was found to be 84%. Also, the IC50 in experiment [2] (24 h) worked out at 560 nM; in experiment [2] (48 h), 370 nM. In experiment [3], the level of apoptotic cells is 22.6%.

For the origin of these results see paper PMC10305181, “A VEGFB-Based Peptidomimetic Inhibits VEGFR2-Mediated PI3K/Akt/mTOR and PLCγ/ERK Signaling and Elicits Apoptotic, Antiangiogenic, and Antitumor Activities” (Pharmaceuticals, 2023).
